Test results as given in US20140094462A1, “SONIC HEDGEHOG MODULATORS” (priority 2009, published 2014).
Like-named read-outs stand apart in the source and are kept apart here.

What was measured:
[1] = biological target: T1, ShhN protein (Homo sapiens, UniProt Q15465); experiment: Surface Plasmon Resonance (SPR) protein binding assay on immobilized ShhN; conditions: SPR, Biacore T100, ShhN immobilized on CM4 chip, 25° C., compound 0.78 μM-25 μM; read-out: KD
T1 construct: auto-cleavage of full length Shh into an active 20 kD N-terminal fragment (ShhN); purchased R&D Systems
T1 sequence (Q15465 24-197 limits assumed, species assumed): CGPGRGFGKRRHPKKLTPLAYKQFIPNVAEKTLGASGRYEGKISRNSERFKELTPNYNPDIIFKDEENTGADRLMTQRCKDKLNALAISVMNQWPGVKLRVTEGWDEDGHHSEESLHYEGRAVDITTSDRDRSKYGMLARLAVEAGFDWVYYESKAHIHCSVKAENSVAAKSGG
Description: Biacore™ T100 (GE Healthcare, Uppsala, Sweden) was used to perform the experiments described herein. Sensor surface preparation and interaction analyses experiments were performed at 25° C.
Control surfaces were prepared similarly without protein derivatization and were utilized as a reference surfaces for compound binding experiments.
Zero concentration blank buffer cycles were included as negative control samples.
Data analysis was carried out using Biacore T100 evaluation software v1.1.1. […] Solvent correction was then applied as described previously.

[2] = rcm bond, toluene, 25.0 °C, 16.0 h

Row | SMILES | Kd [1] [µM] | also measured
1 | C[C@H]1[C@@H](c2ccccc2)OC(=O)CC/C=C\C[C@@H](CC(=O)NCc2ccc(Cl)cc2)C(=O)N1C [Example EZ, N-(4-chlorobenzyl)-2-((2R,3S,6S,Z)-3,4-dimethyl-5,12-dioxo-2-phenyl-1-oxa-4-azacyclododec-8-en-6-yl)acetamide] | > 100 | –
2 | C[C@@H]1C/C=C/CCC(=O)N[C@H](c2ccccc2)CN(C)C1=O | – | ring closure, yield of all isomers ([2]; from C=CCCC(=O)N[C@@H](CN(C)C(=O)[C@H](C)CC=C)c1ccccc1): 68%
3 | C[C@@H]1NC(=O)[C@H](CC(=O)NCc2ccc(Cl)cc2)C/C=C/CCC(=O)O[C@@H]1c1ccccc1 [FP, N-(4-chlorobenzyl)-2-((2R,3S,6S,E)-3-methyl-5,12-dioxo-2-phenyl-1-oxa-4-azacyclododec-8-en-6-yl)acetamide] | > 100 | –
4 | C[C@H]1C/C=C/CCC(=O)N[C@@H](c2ccccc2)COC1=O | – | ring closure, yield of all isomers ([2]; from C=CCCC(=O)N[C@H](COC(=O)[C@@H](C)CC=C)c1ccccc1): 74%
5 | O=C(C[C@@H]1C/C=C/CCC(=O)O[C@H](c2ccccc2)CNC1=O)NC(c1ccccc1)c1ccccc1 [EW] | > 100 | –
6 | O=C(C[C@@H]1C/C=C/CCC(=O)O[C@H](c2ccccc2)CNC1=O)NCc1ccc(Cl)c(C(F)(F)F)c1 [EK] | > 100 | –
7 | O=C(C[C@@H]1C/C=C/CCC(=O)O[C@H](c2ccccc2)CN(Cc2ccccc2)C1=O)NCc1ccc(Cl)cc1 [EV] | > 100 | –
8 | O=C(C[C@@H]1C/C=C/CCC(=O)O[C@H](c2ccccc2)CNC1=O)NCc1ccccc1 [EN] | 1 to 100 | –
9 | O=C(C[C@@H]1CCCCCC(=O)OC[C@@H]2CCCN2C1=O)NCc1ccc(Cl)cc1 [Example FB, N-(4-chlorobenzyl)-2-((9S,14aS)-3,10-dioxododecahydro-1H-pyrrolo[2,1-c][1,4]oxaazacyclododecin-9-yl)acetamide] | 1 to 100 | –
10 | C[C@H]1[C@@H](c2ccccc2)OC(=O)CC/C=C/C[C@@H](CC(=O)NCCCC(F)(F)F)C(=O)N1C [Example FA, 2-((2R,3S,6S,E)-3,4-dimethyl-5,12-dioxo-2-phenyl-1-oxa-4-azacyclododec-8-en-6-yl)-N-(4,4,4-trifluorobutyl)acetamide] | > 100 | –
11 | O=C(C[C@@H]1C/C=C/CCC(=O)O[C@H](c2ccccc2)CNC1=O)NCc1cccc(Cl)c1 [EO] | > 100 | –
12 | C[C@H]1C/C=C\C[C@@H](CC(=O)NCc2ccc(Cl)cc2)C(=O)OC[C@@H](c2ccccc2)NC1=O [Example EE, N-(4-chlorobenzyl)-2-((3R,6S,11S,Z)-6-methyl-5,12-dioxo-3-phenyl-1-oxa-4-azacyclododec-8-en-11-yl)acetamide] | > 100 | –
13 | O=C(C[C@@H]1C/C=C/CCC(=O)N[C@H](c2ccccc2)COC1=O)NCC1CCOCC1 [FZ, 2-((3R,11S,E)-5,12-dioxo-3-phenyl-1-oxa-4-azacyclododec-8-en-11-yl)-N-((tetrahydro-2H-pyran-4-yl)methyl)acetamide] | 1 to 100 | –
14 | CN(Cc1ccc(Cl)cc1)C(=O)C[C@@H]1C/C=C/CCC(=O)O[C@H](c2ccccc2)CN(C)C1=O [EP] | > 100 | –
15 | O=C(C[C@@H]1C/C=C/CCC(=O)O[C@H](c2ccccc2)CNC1=O)NCCc1ccc(Cl)cc1 [EL] | > 100 | –
16 | O=C(C[C@@H]1C/C=C/CCC(=O)N[C@H](Cc2ccccc2)COC1=O)NCc1ccc(Cl)cc1 [FS, 2-((3R,11S,E)-3-benzyl-5,12-dioxo-1-oxa-4-azacyclododec-8-en-11-yl)-N-(4-chlorobenzyl)acetamide] | 1 to 100 | –
17 | O=C(C[C@@H]1C/C=C/C[C@H](Cc2ccccc2)C(=O)N[C@H](c2ccccc2)COC1=O)NCc1ccc(Cl)cc1 [Example ED, 2-((3R,6R,11S,E)-6-benzyl-5,12-dioxo-3-phenyl-1-oxa-4-azacyclododec-8-en-11-yl)-N-(4-chlorobenzyl)acetamide] | > 100 | –
18 | N[C@H]1C/C=C/C[C@@H](CC(=O)NCc2ccc(Cl)cc2)C(=O)NC[C@@H](c2ccccc2)OC1=O [Example EB, 2-((2R,6S,11S,E)-11-amino-5,12-dioxo-2-phenyl-1-oxa-4-azacyclododec-8-en-6-yl)-N-(4-chlorobenzyl)acetamide] | 1 to 100 | –
19 | C[C@@H]1C[C@H](O)[C@@H](O)CCC(=O)N[C@H](c2ccccc2)COC1=O [Example BU, (3R,8S,9S,11R)-8,9-dihydroxy-11-methyl-3-phenyl-1-oxa-4-azacyclododecane-5,12-dione] | 1 to 100 | –
20 | COc1ccccc1[C@@H]1COC(=O)[C@H](CC(=O)NCc2ccc(Cl)cc2)C/C=C/CCC(=O)N1 [Example EY, N-(4-chlorobenzyl)-2-((3R,11S,E)-3-(2-methoxyphenyl)-5,12-dioxo-1-oxa-4-azacyclododec-8-en-11-yl)acetamide] | > 100 | –
21 | O=C(C[C@@H]1C/C=C/CCC(=O)O[C@H](c2ccccc2)CNC1=O)Nc1ccc(Cl)cc1 [EM] | 1 to 100 | –
22 | CC(C)c1ccc(CNC(=O)C[C@@H]2C/C=C/CCC(=O)O[C@H](c3ccccc3)CNC2=O)cc1 [EJ] | 1 to 100 | –
23 | O=C(C[C@@H]1C/C=C/CCC(=O)N[C@H](C2CCCCC2)COC1=O)NCc1ccc(Cl)cc1 [FU, N-(4-chlorobenzyl)-2-((3R,11S,E)-3-cyclohexyl-5,12-dioxo-1-oxa-4-azacyclododec-8-en-11-yl)acetamide] | > 100 | –
24 | N[C@@H]1C/C=C/CCC(=O)N[C@H](c2ccccc2)COC1=O [Example AC, (3R,11R,E)-11-amino-3-phenyl-1-oxa-4-azacyclododec-8-ene-5,12-dione] | 1 to 100 | –
25 | CN1C[C@@H](c2ccccc2)OC(=O)CC/C=C/C[C@@H](Cc2ccc(Cl)cc2)C1=O [Example BR, (2R,6S,E)-6-(4-chlorobenzyl)-4-methyl-2-phenyl-1-oxa-4-azacyclododec-8-ene-5,12-dione] | > 100 | –
26 | O=C(C[C@@H]1C/C=C/CCC(=O)N[C@@H]2c3ccccc3C[C@@H]2OC1=O)NCc1ccc(Cl)cc1 [Example BJ, N-(4-chlorobenzyl)-2-((3S,10aR,15aS,E)-2,9-dioxo-2,3,4,7,8,9,10,10a,15,15a-decahydroindeno[2,1-b][1,4]oxaazacyclododecin-3-yl)acetamide] | 1 to 100 | –
27 | CN1CCN(C(=O)C[C@@H]2C/C=C/CCC(=O)O[C@H](c3ccccc3)CNC2=O)CC1 [ET] | 1 to 100 | –
28 | O=C1CC/C=C/C[C@@H](CC(=O)N2CCN(c3ncccn3)CC2)C(=O)NC[C@@H](c2ccccc2)O1 [EU] | 1 to 100 | –

The next lines start with results.

Row | Kd [1] [µM] | SMILES | also measured
29 | 1 to 100 | C[C@H]1[C@@H](c2ccccc2)OC(=O)CC[C@H](O)[C@@H](O)C[C@@H](CC(=O)NCc2ccc(Cl)cc2)C(=O)N1C [Example BB, N-(4-chlorobenzyl)-2-((2R,3S,6S,8S,9S)-8,9-dihydroxy-3,4-dimethyl-5,12-dioxo-2-phenyl-1-oxa-4-azacyclododecan-6-yl)acetamide] | –
30 | 0.1 to 1 | CC(C)[C@@H]1COC(=O)[C@H](CC(=O)NCc2ccc(Cl)cc2)C/C=C/CCC(=O)N1 [FQ, N-(4-chlorobenzyl)-2-((3R,11S,E)-3-isopropyl-5,12-dioxo-1-oxa-4-azacyclododec-8-en-11-yl)acetamide] | –
31 | < 0.1 | COc1ccccc1[C@@H]1COC(=O)[C@H](CC(=O)OC(C)(C)C)C/C=C/CCC(=O)N1 [FY] | –
32 | < 0.1 | CC(C)(C)OC(=O)C[C@@H]1C/C=C/CCC(=O)N[C@@H]2c3ccccc3C[C@@H]2OC1=O [FW, tert-butyl 2-((3S,10aR,15aS,E)-2,9-dioxo-2,3,4,7,8,9,10,10a,15,15a-decahydroindeno[2,1-b][1,4]oxaazacyclododecin-3-yl)acetate] | –
33 | 1 to 100 | COc1ccc(CNC(=O)C[C@@H]2C/C=C/CCC(=O)O[C@H](c3ccccc3)CNC2=O)cc1 [EQ] | –
34 | 1 to 100 | CCCC[C@@H]1COC(=O)[C@H](CC(=O)NCc2ccc(Cl)cc2)C/C=C/CCC(=O)N1 [FR, 2-((3R,11S,E)-3-butyl-5,12-dioxo-1-oxa-4-azacyclododec-8-en-11-yl)-N-(4-chlorobenzyl)acetamide] | –
35 | < 0.1 | CC(C)(C)OC(=O)C[C@@H]1C/C=C/CCC(=O)N[C@H](c2ccc(Cl)cc2)COC1=O [FV] | –
36 | 1 to 100 | C[C@@H]1CCCCCC(=O)OC[C@@H]2CCCN2C1=O [Example BE, (9R,14aS)-9-methyldecahydro-1H-pyrrolo[2,1-c][1,4]oxaazacyclododecine-3,10-dione] | –
37 | 1 to 100 | O=C(C[C@@H]1C/C=C/CCC(=O)N2CCC[C@H]2COC1=O)NCc1ccc(Cl)cc1 [FT, N-(4-chlorobenzyl)-2-((4S,14aS,E)-3,10-dioxo-3,4,5,8,9,10,12,13,14,14a-decahydro-1H-pyrrolo[2,1-c][1,4]oxaazacyclododecin-4-yl)acetamide] | –
38 | 1 to 100 | CN1C[C@@H](c2ccccc2)OC(=O)CC/C=C/C[C@@H](CC(=O)NCC2CCOCC2)C1=O [Example EX, 2-((2R,6S,E)-4-methyl-5,12-dioxo-2-phenyl-1-oxa-4-azacyclododec-8-en-6-yl)-N-((tetrahydro-2H-pyran-4-yl)methyl)acetamide] | –
39 | 0.1 to 1 | C[C@@H]1C/C=C/C[C@@H](CC(=O)NCc2ccc(Cl)cc2)C(=O)NC[C@@H](c2ccccc2)OC1=O [Example EA, N-(4-chlorobenzyl)-2-((2R,6S,11R,E)-11-methyl-5,12-dioxo-2-phenyl-1-oxa-4-azacyclododec-8-en-6-yl)acetamide] | –
40 | 0.1 to 1 | C[C@@H]1C/C=C/CCC(=O)N[C@@H]2c3ccccc3C[C@@H]2OC1=O [Example BV, (3R,10aR,15aS,E)-3-methyl-3,4,7,8,10,10a,15,15a-octahydroindeno[2,1-b][1,4]oxaazacyclododecine-2,9-dione] | –
41 | < 0.1 | O=C(C[C@@H]1C/C=C/C[C@H](O)C(=O)O[C@H](c2ccccc2)CNC1=O)NCc1ccc(Cl)cc1 [Example EC, N-(4-chlorobenzyl)-2-((2R,6S,11S,E)-11-hydroxy-5,12-dioxo-2-phenyl-1-oxa-4-azacyclododec-8-en-6-yl)acetamide] | –
42 | < 0.1 | CC(C)(C)OC(=O)C[C@@H]1C/C=C/CCC(=O)N[C@H](c2ccc(F)cc2)COC1=O [FX] | –
43 | < 0.1 | O=C1CC/C=C/CCC(=O)OC[C@@H](c2ccccc2)N1 [F] | –
